Test results from US12390426B1, “Use of adamantane compositions and methods of reducing fibrotic tissue” (Ventoux Biosciences, Inc., priority 2024, dated 2025).
Where a name gives a salt, the structure may show the parent alone.

Tests used:
[1] = test system: Bleomycin-Induced Dermal Fibrosis; assay: Bleomycin-induced dermal fibrosis animal model; assay type: in vivo, C57Bl/6 Mice; details: 15 mg/kg intraperitoneal once daily days 0-27; bleomycin 20 μg s.c. daily; stated in words only, figure values not given
Text: Animal Model Designed to Determine Efficacy of Memantine for the Treatment of Bleomycin-Induced Dermal Fibrosis
Forty-two normal male C57Bl/6 Mice were obtained from Charles River Laboratories. Mice age at the start of the study were from 6-8 weeks old. Study subjects were allocated as follows: 1 group of 6 mice and 3 groups of 12 mice each. Animals were not replaced during the study.
(§1) Bleomycin from Henry Schein (Cat #: 8700001) was obtained as a lyophilized powder. Unformulated Bleomycin was stored at 4° C. Formulated Bleomycin was prepared by mixing the lyophilized Bleomycin powder with saline to obtain a 0.4 mg/ml solution. Unused unformulated Bleomycin was retained. The prepared Bleomycin solution was aliquoted into 50 μL, 0.4 mg/ml Bleomycin parts and stored at −80° C. Bleomycin was prepared once and daily aliquots were frozen. Frozen aliquots were thawed daily for administration. […] Bleomycin was administered once daily on days 0-27 at 20 μg per subcutaneous injection. Unused formulated Bleomycin was disposed.
Memantine HCl from Selleckchem (Cat #: S2043) was obtained. Unformulated Memantine HCl was stored at −20° C. […]
Animals were dosed with test articles, administered at least 60 minutes prior to Bleomycin or saline injections. All animals were weighed and evaluated daily. […]

Alzheimer's disease = details: cited from earlier work
long term potentiation = details: animal models; cited from earlier work
[2] = Stability of the formulated dosing solutions; assay type: physicochemical; details: 0.4 mg/ml in saline; room temperature
Protocol: as §1
Memantine HCl from Selleckchem (Cat #: S2043) was obtained. Unformulated Memantine HCl was stored at −20° C. Memantine was formulated daily by the following procedure: dissolve memantine in a 50/50 mixture of Kolliphor® EL (Sigma, Cat #: C5135)/ethanol for a 4× concentration of 12 mg/ml. Once dissolved, 3 parts MilliQ water is added for a final concentration of 3 mg/ml for dosing (12.5% Kolliphor® EL, 12.5% ethanol, 75% water). Unused unformulated Memantine was disposed. Memantine was formulated daily and administered by intraperitoneal injection once daily on days 0-27 at 15 mg/kg; 0.1 mL/20 g (5 mL/kg). […] Unused formulated Memantine was disposed.

| Compound | efficacy at treating fibromatosis conditions [1] | cognitive, functional and global endpoints (Alzheimer's disease; three randomized placebo-controlled trials, Alzheimer's disease) | tolerability (Alzheimer's disease; used in Germany for neurological syndromes and cognitive deficits since 1982) | duration of long term potentiation in vivo (long term potentiation) | learning and memory (long term potentiation) | stability of formulated Bleomycin [2] |
| --- | --- | --- | --- | --- | --- | --- |
| CC12CC3CC(C)(C1)CC(N)(C3)C2 [Memantine, Memantine HCl] | Effective at Treating Fibromatosis Conditions | significant improvements | good tolerability | prolong the duration of long term potentiation in vivo | improve learning and memory | – |
| Bleomycin | – | – | – | – | – | stable for a few hours at room temperature |
